Assay results published in PubChem BioAssay (NCI).
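Tested at 5 concentrations; 48 h exposure; 96-well plates; endpoints linearly interpolated, else capped at highest concentration. At the TGI there is no net growth.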

Key:
Assay in all cases: NCI tumour cell line growth inhibition, 48 h
KM12 colon = test system: KM12 colon
OVCAR-4 ovarian = test system: OVCAR-4 ovarian
ACHN renal = test system: ACHN renal
T-47D breast = test system: T-47D breast
SW-620 colon = test system: SW-620 colon
PC-3 prostate = test system: PC-3 prostate
M14 melanoma = test system: M14 melanoma
CCRF-CEM leukemia = test system: CCRF-CEM leukemia
K-562 leukemia = test system: K-562 leukemia
IGROV1 ovarian = test system: IGROV1 ovarian
SR leukemia = test system: SR leukemia
CAKI-1 renal = test system: CAKI-1 renal

SMILES | TGI (KM12 colon) [µM] | TGI (OVCAR-4 ovarian) [µM] | TGI (ACHN renal) [µM] | TGI (T-47D breast) [µM] | TGI (SW-620 colon) [µM] | TGI (PC-3 prostate) [µM] | TGI (M14 melanoma) [µM] | TGI (CCRF-CEM leukemia) [µM] | TGI (K-562 leukemia) [µM] | TGI (IGROV1 ovarian) [µM] | TGI (SR leukemia) [µM] | TGI (CAKI-1 renal) [µM]
CCOC(=O)N1CCN(c2ccc3c(C)cc(C)nc3n2)CC1 | > 100 | > 100 | > 100 | > 100 | > 100 | > 100 | > 100 | > 100 | > 100 | > 100 | > 100 | > 100
CC(C)[C@@H]1CC[C@@H](C)C[C@H]1OC(=O)/C=C1/C2C=CC(O2)C1C(=O)O[C@@H]1C[C@H](C)CC[C@H]1C(C)C (some centres not stated) | > 100 | > 100 | > 100 | > 100 | > 100 | > 100 | > 100 | > 100 | > 100 | > 100 | > 100 | > 100
O=C1C(NCCc2ccc(O)c(O)c2)=CC(=O)c2ncccc21 | 30.5 | 50.9 | 33.5 | 65.3 | 32.3 | > 100 | 40.5 | 60.4 | 20.2 | 27.2 | > 100 | 21.5
O=C1C(F)=CC(COC(c2ccccc2)(c2ccccc2)c2ccccc2)OC1n1cc(F)c(=O)[nH]c1=O (configuration not stated) | 7.72 | 14.4 | 3.08 | > 28.6 | 4.26 | 4.69 | 5.03 | > 32 | > 100 | 6.79 | > 100 | 9.09
Cc1cc(CNC(=O)OCc2ccccc2)c(C)c2c1Oc1ccccc1O2 | > 100 | 72.3 | > 100 | > 100 | > 100 | > 100 | > 100 | > 100 | > 100 | > 100 | > 100 | > 87.5
Cc1ccc(N=Nc2c(O)ccc3cc(S(=O)(=O)O)ccc23)c(C)c1 | > 100 | > 100 | > 100 | > 100 | > 100 | > 100 | > 100 | > 100 | > 100 | > 100 | > 100 | > 100
COC(=O)C(C)(N=Cc1ccccc1)c1ccccc1 (configuration not stated) | > 100 | > 100 | > 100 | > 100 | > 100 | > 100 | > 100 | > 100 | > 100 | > 100 | > 100 | > 100
FC(F)(F)c1ccccc1N1CCN(c2nc(-c3cccs3)nc3ccc(Br)cc23)CC1 | 83.7 | > 100 | > 100 | > 100 | > 100 | 49.5 | > 100 | 39.8 | > 100 | > 100 | > 100 | 94.5
NC(=Nc1ccc(O)cc1)S(=O)(=O)O | > 100 | > 100 | > 100 | > 100 | > 100 | > 100 | > 100 | > 100 | > 100 | > 100 | > 100 | > 100
Clc1ccc(Cc2nc3ccc(CCN4CCN(c5ccccc5)CC4)cc3[nH]2)cc1 | 24.1 | 37.3 | > 100 | 33.6 | > 100 | > 100 | 19.2 | > 100 | 30.6 | 90.6 | 36 | 38.6
COc1ccc(S(=O)(=O)O)cc1-n1nc(C(=O)Nc2ccccc2)n[n+]1-c1cc(S(=O)(=O)[O-])ccc1OC | > 100 | > 100 | > 100 | > 100 | > 100 | > 100 | > 100 | > 100 | > 100 | > 100 | > 100 | > 100
O=C(NCCC(F)(F)C(F)(F)C(F)(F)C(F)(F)F)NC1OC(CO)C(O)C(O)C1O (configuration not stated) | > 100 | > 100 | > 100 | > 100 | > 100 | > 100 | > 100 | > 100 | > 100 | > 100 | > 100 | > 100
O=[N+]([O-])/C(C(Cl)=C(Cl)Cl)=C1\NCCO1 | > 100 | > 100 | > 100 | > 100 |  | > 100 | > 100 | 66.7 | > 100 | > 100 | > 100 | > 100
CC1(C)N=C(C(N)=O)c2ncn(CCO)c2N1 | > 100 | > 100 | > 100 | > 100 | > 100 | > 100 | > 100 | > 100 | > 100 | > 100 | > 100 | > 100
